In the NIST ThermoML archive (doi:10.1021/je700671t):
± gives the expanded uncertainty stated by the source.

Key:
[1] = 101 kPa, Liquid; for viscosity: Capillary tube (Ostwald / Ubbelohde) method
[2] = xn = mol fraction of the nth substance listed; conditions: 101 kPa, Liquid, x2 = 0; for viscosity: Capillary tube (Ostwald / Ubbelohde) method

CN(C)C=O [dimethylformamide]
[1]
Conditions | mass density [kg/m3] | viscosity [mPa·s]
283.15 K | 958.96 ± 0.25 | –
288.15 K | 954.17 ± 0.26 | –
293.15 K | 949.39 ± 0.27 | 0.864 ± 0.01
298.15 K | 944.6 ± 0.27 | –
303.15 K | 939.83 ± 0.28 | 0.766 ± 0.009
308.15 K | 935.05 ± 0.29 | –
313.15 K | 930.27 ± 0.29 | 0.684 ± 0.009
318.15 K | 925.49 ± 0.3 | –
323.15 K | 920.71 ± 0.31 | 0.617 ± 0.009
328.15 K | 915.92 ± 0.32 | –
333.15 K | 911.13 ± 0.32 | 0.559 ± 0.009
338.15 K | 906.32 ± 0.33 | –
343.15 K | 901.51 ± 0.34 | 0.51 ± 0.009
348.15 K | 896.69 ± 0.34 | –
353.15 K | 891.86 ± 0.35 | 0.47 ± 0.009

O [water] + CN(C)C=O
[2]
Conditions | mass density [kg/m3] | viscosity [mPa·s]
283.15 K | 999.7 ± 0.13 | –
293.15 K | – | 1.026 ± 0.01
303.15 K | – | 0.817 ± 0.009
313.15 K | – | 0.67 ± 0.009
323.15 K | 988.03 ± 0.14 | 0.561 ± 0.009
328.15 K | 985.69 ± 0.15 | –
333.15 K | 983.19 ± 0.15 | 0.48 ± 0.009
338.15 K | 980.55 ± 0.16 | –
343.15 K | 977.76 ± 0.16 | 0.419 ± 0.008
348.15 K | 974.84 ± 0.16 | –
353.15 K | 971.79 ± 0.17 | 0.371 ± 0.008
